The values below come from article PMC11054573, “Identification of Ureidocoumarin-Based Selective Discoidin Domain Receptor 1 (DDR1) Inhibitors via Drug Repurposing Approach, Biological Evaluation, and In Silico Studies” (Pharmaceuticals, 2024).

Read-outs that look alike come from different tables or passages of the source.

One test concerns K562 leukemia cells. Kind of test: NCI SRB antiproliferative assay, K562. The note with it: Homo sapiens; for inhibition at 10 µM: read-out: % Growth inhibition at 10 µM K562; for GI50: five-dose testing. The class given is cell-based. The procedure: (§1) Six members, 3a, 3g–j, and 3q, out of the investigated compounds were further evaluated for their antiproliferative effects against human cancer cell lines, including leukemia (K562), colon cancer (HCT116), non-small cell lung (NSCL) cancer (A549, NCI-H23 and NCI-H460), and breast cancer (MCF-7 and T47D) cells. The tested cell lines’ choice depended on their elevated DDR1 expression levels. The cell lines were all treated with a 10 µM concentration of the tested compounds, and the results were expressed as the percentage of growth inhibition (%GI) (Table 4).
(§2) Inhibition of the tumor relevant carbonic anhydrases IX and XII may be one of these additional mechanisms.
(§3) The evaluation of the antiproliferative activities of compounds 3a, 3g–j, and 3q over a panel of DDR1-dependent cell lines was conducted employing the sensitive Sulforhodamine B (SRB) assay at the National Cancer Institute (NCI), Bethesda, Maryland, USA, following the standard protocol.
A general note: In SRB staining, fixed cells bind dye roughly in proportion to their protein.

The test system of test [1] is HCT116 colon cancer cells. The test is described as follows: NCI SRB antiproliferative assay, HCT116. The test is classed as cell-based. The note with it: Homo sapiens, HCT-116; for inhibition at 10 µM: read-out: % Growth inhibition at 10 µM HCT116; for GI50: five-dose testing. The method, then: as §1, §2, §3
Test [2] concerns A549 non-small cell lung cancer cells. The test is described as follows: NCI SRB antiproliferative assay, A549. The test is classed as cell-based. The note with it: Homo sapiens; for inhibition at 10 µM: read-out: % Growth inhibition at 10 µM A549; for GI50: five-dose testing. The procedure:
as §1, §2, §3

For test [3], the system named is NCI-H23 non-small cell lung cancer cells. The test is described as follows: NCI SRB antiproliferative assay, NCI-H23. The note with it: Homo sapiens; for inhibition at 10 µM: read-out: % Growth inhibition at 10 µM NCI-H23; for GI50: five-dose testing. The class given is cell-based. The procedure: as §1, §2, §3
For test [4], the system named is NCI-H460 non-small cell lung cancer cells. Kind of test: NCI SRB antiproliferative assay, NCI-H460. The class given is cell-based. The note with it: Homo sapiens; for inhibition at 10 µM: read-out: % Growth inhibition at 10 µM NCI-H460; for GI50: five-dose testing. The method, then: as §1, §2, §3
The test system of test [5] is MCF-7 breast cancer cells. Kind of test: NCI SRB antiproliferative assay, MCF-7. The test is classed as cell-based. The note with it: Homo sapiens, MCF7; for inhibition at 10 µM: read-out: % Growth inhibition at 10 µM MCF-7; for GI50: five-dose testing. The method, then: as §1, §2, §3
In another test the test system is T47D breast cancer cells. The test is described as follows: NCI SRB antiproliferative assay, T47D. The test is classed as cell-based. The note with it: Homo sapiens; for inhibition at 10 µM: read-out: % Growth inhibition at 10 µM T47D; for GI50: five-dose testing. The method, then:
as §1, §2, §3

Test [6] concerns the target T1, DDR1 (Homo sapiens, UniProt Q08345). The test is described as follows: RBC radiometric HotSpot kinase assay, DDR1. The note with it: for SI: Selectivity index (IC50 DDR2/IC50 DDR1): DDR1 over DDR2; for inhibition at 10 µM: read-out: % Inhibition at 10 μM (SEM) DDR1.
Experimental: (§4) All compounds in this study were tested against DDR1 and DDR2 at a 10 µM dose at Reaction Biology Corporation (RBC, Malvern, PA, USA) employing the radiometric HotSpot Kinase assay protocol (Table 1).
In the next test the target is T2, DDR2 (Homo sapiens, UniProt Q16832).
T2 sequence (Q16832 22-855): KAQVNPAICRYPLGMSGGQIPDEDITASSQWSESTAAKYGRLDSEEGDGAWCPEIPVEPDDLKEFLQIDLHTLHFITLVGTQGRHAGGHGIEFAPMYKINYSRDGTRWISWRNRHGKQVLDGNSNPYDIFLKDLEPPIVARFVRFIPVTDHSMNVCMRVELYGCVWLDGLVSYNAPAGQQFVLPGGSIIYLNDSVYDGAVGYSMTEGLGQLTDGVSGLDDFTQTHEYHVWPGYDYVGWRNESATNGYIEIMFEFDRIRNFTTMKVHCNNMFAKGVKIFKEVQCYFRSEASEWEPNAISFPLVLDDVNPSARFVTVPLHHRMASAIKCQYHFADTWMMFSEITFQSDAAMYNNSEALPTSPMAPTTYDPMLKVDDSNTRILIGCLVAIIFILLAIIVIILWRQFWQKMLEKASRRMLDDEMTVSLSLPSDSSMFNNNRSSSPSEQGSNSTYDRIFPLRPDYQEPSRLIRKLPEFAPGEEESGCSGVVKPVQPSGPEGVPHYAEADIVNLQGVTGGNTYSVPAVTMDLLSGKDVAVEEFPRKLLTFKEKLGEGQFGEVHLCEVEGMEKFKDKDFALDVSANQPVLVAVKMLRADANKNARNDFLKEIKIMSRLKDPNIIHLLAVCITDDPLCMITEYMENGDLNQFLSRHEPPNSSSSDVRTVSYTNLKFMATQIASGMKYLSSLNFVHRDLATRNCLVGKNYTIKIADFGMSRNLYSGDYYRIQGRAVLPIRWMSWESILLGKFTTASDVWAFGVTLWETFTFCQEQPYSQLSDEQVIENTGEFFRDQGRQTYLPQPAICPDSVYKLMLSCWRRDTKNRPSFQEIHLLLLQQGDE
The test is described as follows: RBC radiometric HotSpot kinase assay, DDR2. The note with it: for inhibition at 10 µM: read-out: % Inhibition at 10 μM (SEM) DDR2.

The test system of test [7] is DDR1-dependent cancer cell lines. Kind of test: NCI SRB antiproliferative assay, whole panel of DDR1-dependent cell lines. The class given is cell-based, human. The note with it: span over the seven cell lines. The procedure:
as §1, §2, §3

The target in test [8] is T1, DDR1. On the set-up: purchased Reaction Biology Corporation (RBC, Malvern, PA, USA). The note with it: cited from earlier work.

T1 sequence (Q08345 19-913): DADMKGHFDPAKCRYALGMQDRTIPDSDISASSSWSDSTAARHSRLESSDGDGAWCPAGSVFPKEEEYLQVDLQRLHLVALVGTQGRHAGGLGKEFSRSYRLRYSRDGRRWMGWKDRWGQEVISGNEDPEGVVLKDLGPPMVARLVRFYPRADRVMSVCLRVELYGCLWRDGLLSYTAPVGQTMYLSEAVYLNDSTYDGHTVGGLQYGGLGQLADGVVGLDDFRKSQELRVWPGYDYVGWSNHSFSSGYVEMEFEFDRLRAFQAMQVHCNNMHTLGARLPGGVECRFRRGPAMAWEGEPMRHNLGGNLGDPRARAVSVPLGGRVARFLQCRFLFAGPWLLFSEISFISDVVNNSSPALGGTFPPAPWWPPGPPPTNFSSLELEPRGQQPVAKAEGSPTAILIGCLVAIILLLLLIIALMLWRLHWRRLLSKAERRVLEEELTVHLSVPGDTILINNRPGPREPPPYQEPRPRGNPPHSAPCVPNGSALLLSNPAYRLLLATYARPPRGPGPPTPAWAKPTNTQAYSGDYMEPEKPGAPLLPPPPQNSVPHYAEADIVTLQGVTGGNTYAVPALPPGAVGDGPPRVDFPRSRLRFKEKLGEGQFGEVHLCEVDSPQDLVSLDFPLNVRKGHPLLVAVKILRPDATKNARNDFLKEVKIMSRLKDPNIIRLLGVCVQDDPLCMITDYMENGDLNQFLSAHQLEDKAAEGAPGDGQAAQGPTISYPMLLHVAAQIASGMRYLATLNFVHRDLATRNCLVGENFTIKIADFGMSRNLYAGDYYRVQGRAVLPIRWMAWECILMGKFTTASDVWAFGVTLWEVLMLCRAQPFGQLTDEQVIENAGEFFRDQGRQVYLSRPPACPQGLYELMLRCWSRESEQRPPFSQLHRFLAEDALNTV
Experimental for DDR2: as §4

Broadly, the inhibition is the drop in the measured response relative to a control, in per cent. A word on the IC50: it is the midpoint of a concentration-inhibition curve. Consider `O=C(Nc1cccc(C(F)(F)F)c1)Nc1ccc2oc(=O)ccc2c1` [Compound 3a], for which the inhibition at 10 µM turned out to be 33.2% in the test with K562 leukemia cells; 20.9% in [1]; 10.4% in test [2]; 13.2% in test [3]; 15.8% in test [4]; 29.2% in [5]. The inhibition at 10 µM is 24.6% in the test on T47D breast cancer cells, 92.7% at DDR1 [6] and 83.6% at DDR2. Also, the IC50 against DDR1 [6] is 0.321 µM; on DDR2, 2.39 µM. The “SI: Selectivity index (IC50 DDR2/IC50 DDR1)” value (from here on “SI: Selectivity index”) at DDR1 [6] stood at 7.5.

Regarding `O=C(Nc1ccc(C(F)(F)F)cc1)Nc1ccc2oc(=O)ccc2c1` [Compound 3b], the inhibition at 10 µM at DDR1 [6] came out at 24.5%; on DDR2, 11.7%.

Turning to `O=C(Nc1ccc(F)cc1)Nc1ccc2oc(=O)ccc2c1` [Compound 3c], the inhibition at 10 µM came out at 25.6% at DDR1 [6] and 15.9% at DDR2.

As for `O=C(Nc1ccc(Br)cc1)Nc1ccc2oc(=O)ccc2c1` [Compound 3d], the inhibition at 10 µM stood at 23.1% at DDR1 [6] and 7.53% at DDR2.

Consider `CCCCc1ccc(NC(=O)Nc2ccc3oc(=O)ccc3c2)cc1` [Compound 3e], for which the inhibition at 10 µM was determined as 15.4% on DDR1 [6] and 3.07% at DDR2.

Take `CCCCOc1ccc(NC(=O)Nc2ccc3oc(=O)ccc3c2)cc1` [Compound 3f]: the inhibition at 10 µM worked out at 10.6% at DDR1 [6] and 5.52% on DDR2.

As to `O=C(Nc1ccc(Cl)c(C(F)(F)F)c1)Nc1ccc2oc(=O)ccc2c1` [Compound 3g], the inhibition at 10 µM came out at 80.8% in the test on K562 leukemia cells; 84.3% in test [1]; 60.1% in test [2]; 95.2% in test [3]; 81.9% in [4]; 88.1% in test [5]. The inhibition at 10 µM with T47D breast cancer cells amounted to 91.3%; at DDR1 [6], 49%; on DDR2, 39.3%. For the same compound, the IC50 against DDR1 [6] was 2.9 µM; against DDR2 it was over 10 µM. The “SI: Selectivity index” value at DDR1 [6] is listed as over 3.4.

For the compound `O=C(Nc1ccc(F)c(Cl)c1)Nc1ccc2oc(=O)ccc2c1` [Compound 3h], the inhibition at 10 µM is 32.2% in the test with K562 leukemia cells; 14.1% in test [1]; 15.1% in test [2]; 14.3% in test [3]; 20.6% in [4]; 25.4% in test [5]. In addition, the inhibition at 10 µM with T47D breast cancer cells is 24.6%; on DDR1 [6], 57.2%; at DDR2, 27.5%. For the same compound, the “%GI over all tested cell lines” value in test [7] (10 µM) is on record as under 35%. Besides, the IC50 was 1.66 µM on DDR1 [6] and over 10 µM at DDR2. The “SI: Selectivity index” value on DDR1 [6] is listed as over 6.0.

Usually GI50 stands for the concentration giving 50% growth inhibition. Take `O=C(Nc1cc(C(F)(F)F)cc(C(F)(F)F)c1)Nc1ccc2oc(=O)ccc2c1` [Compound 3i]: the GI50 with K562 leukemia cells is 0.55 µM; in test [1], 0.732 µM; in test [2] it was 1.59 µM; in test [3], 0.94 µM; in [4], 0.69 µM; in test [5] it was 1.94 µM. In the test on T47D breast cancer cells, this compound yielded a GI50 of 1.34 µM. The inhibition at 10 µM is 86.3% with K562 leukemia cells; 97.9% in [1]; 84.8% in test [2]; 100% in test [3]; 93.6% in [4]; 96.2% in test [5]. Besides, the inhibition at 10 µM with T47D breast cancer cells was 95.2%; at DDR1 [6], 77.1%; on DDR2, 67.3%. Also, the IC50 against DDR1 [6] turned out to be 1.53 µM; against DDR2 it was 19 µM. The “SI: Selectivity index” value at DDR1 [6] was 12.4.

On to `O=C(Nc1cc(Cl)cc(Cl)c1)Nc1ccc2oc(=O)ccc2c1` [Compound 3j], for which the GI50 with K562 leukemia cells worked out at 2.34 µM; in test [1], 2.31 µM; in test [2], 2.9 µM; in [3], 2.67 µM; in test [4], 2.27 µM; in test [5], 2.28 µM. Also, the GI50 with T47D breast cancer cells was 1.93 µM; in test [7] (Homo sapiens, read-out: GI50 over all tested cell lines), 1.93 to 2.9 µM. In addition, the inhibition at 10 µM with K562 leukemia cells is 84.6%; in test [1] it was 98.6%; in [2] it was 83.8%; in [3], 106%; in test [4], 98.8%; in [5] it was 94.5%. Also, the inhibition at 10 µM in the test on T47D breast cancer cells is 96.5%; on DDR1 [6], 48.5%; at DDR2, 23.3%. Further, the IC50 on DDR1 [6] was 2.52 µM; against DDR2 it was over 10 µM. The “SI: Selectivity index” value at DDR1 [6] is listed as over 4.0.

As to `Cc1cc(C)cc(NC(=O)Nc2ccc3oc(=O)ccc3c2)c1` [Compound 3k], the inhibition at 10 µM amounted to 33.8% on DDR1 [6] and 17.3% at DDR2.

`O=C(Nc1ccc2oc(=O)ccc2c1)Nc1ccc(Cl)cc1Cl` [Compound 3l]: the figures for the inhibition at 10 µM at DDR1 [6] and at DDR2 were 19% and 17.1%, respectively.

Take `O=C(Nc1ccc2oc(=O)ccc2c1)Nc1ccc(F)cc1F` [Compound 3m]: the inhibition at 10 µM on DDR1 [6] is 5.83%; at DDR2 it was 0.78%.

As for `Cc1cc(Cl)ccc1NC(=O)Nc1ccc2oc(=O)ccc2c1` [Compound 3n], the results for the inhibition at 10 µM on DDR1 [6] and on DDR2 were 10.7% and 8.02%, respectively.

Consider `Cc1cccc(Cl)c1NC(=O)Nc1ccc2oc(=O)ccc2c1` [Compound 3o], for which the values for the inhibition at 10 µM at DDR1 [6] and on DDR2 were 15.7% and -1.4%, respectively.

For the compound `O=C(Nc1ccc2oc(=O)ccc2c1)Nc1c(Br)cc(F)cc1Br` [Compound 3p], the results for the inhibition at 10 µM at DDR1 [6] and at DDR2 were 15% and 17.1%, respectively.

Turning to `O=C(Nc1ccc2oc(=O)ccc2c1)c1ccc(Cl)c(C(F)(F)F)c1` [Compound 4a], the inhibition at 10 µM was 5.82% on DDR1 [6] and 3.77% on DDR2.

With `O=C(Nc1ccc2oc(=O)ccc2c1)c1cc(C(F)(F)F)cc(C(F)(F)F)c1` [Compound 4b], the inhibition at 10 µM at DDR1 [6] came to 12.6%; on DDR2, 6.06%.

Turning to `O=C(Nc1ccc2oc(=O)ccc2c1)c1cc(F)cc(F)c1` [Compound 4c], the inhibition at 10 µM on DDR1 [6] was found to be 22.4%; on DDR2 it was 17%.

For `O=C(Nc1cccc(Cl)c1)Nc1cc2ncncc2cc1OCc1cccc(F)c1` [KST9046], the IC50 at DDR1 [8] was 4.38 µM.

As to `CCN1CCN(Cc2ccc(NC(=O)Nc3nc4ccc(Oc5ccnc(C(=O)NC)c5)cc4s3)cc2C(F)(F)F)CC1` [KST016366], the IC50 at DDR1 [8] is 0.0265 µM.

In the case of `Cn1ccc(-c2cncc(CNc3cc(C(=O)Nc4cccc(OC(F)(F)F)c4)ccc3F)c2)n1` [VU6015929, reference compound], 0.00155 µM corresponded to half-maximal inhibition against DDR2 (IC50).
